# Experimental data taken from ChEMBL document CHEMBL1147323, “The effect of ginsenoside-Rb2 on nitrogen balance” (1989).
# Legend:
# [1] = test system: Rattus norvegicus; assay: Effect on nitrogen balance in Wistar rat diabetic model assessed as residual fecal nitrogen at 10 mg/day, ip for 6 days measured 6 hrs after last dose relative to diabetic control; assay type: functional, Feces
# [2] = test system: Rattus norvegicus; assay: Effect on nitrogen balance in Wistar rat diabetic model assessed as residual fecal nitrogen at 10 mg/day, ip for 6 days measured 6 hrs after last dose relative to non-diabetic control; assay type: functional, Feces
# [3] = test system: Rattus norvegicus; assay: Effect on nitrogen balance in Wistar rat diabetic model assessed as residual urinary nitrogen at 10 mg/day, ip for 6 days measured 6 hrs after last dose relative to diabetic control; assay type: functional, Urine
# [4] = test system: Rattus norvegicus; assay: Effect on nitrogen balance in Wistar rat diabetic model assessed as absorbed nitrogen at 10 mg/day, ip for 6 days measured 6 hrs after last dose relative to non-diabetic control; assay type: functional
# [5] = test system: Rattus norvegicus; assay: Effect on nitrogen balance in Wistar rat diabetic model assessed as retained nitrogen at 10 mg/day, ip for 6 days measured 6 hrs after last dose relative to non-diabetic control; assay type: functional
# [6] = test system: Rattus norvegicus; assay: Effect on nitrogen balance in Wistar rat diabetic model assessed as retained nitrogen at 10 mg/day, ip for 6 days measured 6 hrs after last dose relative to diabetic control; assay type: functional
# [7] = test system: Rattus norvegicus; assay: Effect on nitrogen balance in Wistar rat diabetic model assessed as residual urinary nitrogen at 10 mg/day, ip for 6 days measured 6 hrs after last dose relative to non-diabetic control; assay type: functional, Urine
# [8] = test system: Rattus norvegicus; assay: Effect on nitrogen balance in Wistar rat diabetic model assessed as absorbed nitrogen at 10 mg/day, ip for 6 days measured 6 hrs after last dose relative to diabetic control; assay type: functional
compound,measurement,setting,value
CC(C)=CCC[C@](C)(O[C@@H]1O[C@H](CO[C@@H]2OC[C@H](O)[C@H](O)[C@H]2O)[C@@H](O)[C@H](O)[C@H]1O)[C@H]1CC[C@]2(C)[C@@H]1[C@H](O)C[C@@H]1[C@@]3(C)CC[C@H](O[C@@H]4O[C@H](CO)[C@@H](O)[C@H](O)[C@H]4O[C@@H]4O[C@H](CO)[C@@H](O)[C@H](O)[C@H]4O)C(C)(C)[C@@H]3CC[C@]12C [GINSENOSIDE RB2],Activity,[1],93%
same,Activity,[2],186%
same,Activity,[3],75%
same,Activity,[4],225%
same,Activity,[5],313%
same,Activity,[6],415%
same,Activity,[7],223%
same,Activity,[8],104%
